Measurements: paper PMC10229614 (Scientific Reports, 2023)
Like-named read-outs stand apart in the source and are kept apart here. Blank lines part the entries; values can stand above or below the compound they belong to.

Assays:
[1] = target: T1, aromatase (CYP19A1) (Homo sapiens, UniProt P11511); test: Aromatase inhibition assay (Corning Supersomes CYP19/MFC kit, fluorescent); assay type: biochemical; settings: 37 °C, mean ± SD of at least three measurements
T1 construct: purchased Corning (Corning, NY)
T1 sequence (P11511 1-503): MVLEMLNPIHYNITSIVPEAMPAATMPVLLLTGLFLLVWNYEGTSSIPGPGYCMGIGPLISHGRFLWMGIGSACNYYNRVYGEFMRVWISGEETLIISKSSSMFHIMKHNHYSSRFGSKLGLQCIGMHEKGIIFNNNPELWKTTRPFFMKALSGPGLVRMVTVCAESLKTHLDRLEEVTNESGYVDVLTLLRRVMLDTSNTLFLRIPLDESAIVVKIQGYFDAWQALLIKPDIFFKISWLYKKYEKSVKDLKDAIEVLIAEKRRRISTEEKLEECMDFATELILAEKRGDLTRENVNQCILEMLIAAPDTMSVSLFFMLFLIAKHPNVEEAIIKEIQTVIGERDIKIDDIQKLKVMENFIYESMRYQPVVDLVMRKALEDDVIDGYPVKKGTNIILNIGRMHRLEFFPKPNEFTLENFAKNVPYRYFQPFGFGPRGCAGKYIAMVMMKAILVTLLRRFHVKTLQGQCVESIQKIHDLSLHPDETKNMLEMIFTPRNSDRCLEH
Procedure: Formation of a fluorescent metabolite was measured at Ex/Em of 409 nm/530 nm. Data represents mean ± SD of at least three independent measurements.
To evaluate the aromatase inhibitory potential of hops, licorice species, and their bioactive compounds, the Corning® Supersomes™ P450 Inhibition Kit CYP19/MFC high throughput inhibition assay was used. The protocol of the kit, which is based on the effects of the tested agents on the conversion of the fluorescent substrate, 7-methoxy-4-trifluoromethyl coumarin (MFC) to 7-hydroxy-4-trifluoromethyl coumarin (HFC) by aromatase, was followed. […] Then the enzyme/substrate mixture containing the aromatase enzyme and MFC were added to the pre-incubated mixture and were incubated at 37 °C for 30 min before stopping the enzymatic reaction with the stop solution. The fluorescent signal was evaluated at the Excitation/Emission of 409 nm/530 nm and was corrected for the potential innate fluorescence of the tested extracts and compounds.

[2] = system: ERα; settings: read-out: ERα binding (IC50), cited from earlier work
[3] = system: ERβ; settings: read-out: ERβ binding (IC50), cited from earlier work
[4] = system: CYP19A1 expression; test: qPCR of CYP19A1 mRNA in high-risk postmenopausal breast tissue microstructures; assay type: cell-based, human; settings: 24 h, vs vehicle; for Suppression of baseline CYP19A1 expression: 5 µM, six subjects' tissues
Procedure: Subsequently, RNA extraction and qPCR of CYP19A1 was performed. The expression of CYP19A1 mRNA was calculated relative to the housekeeping gene RPLP0 and normalized to DMSO control.
The unaffected contralateral breast tissues of postmenopausal women who underwent bilateral mastectomy due to incident unilateral breast cancer were obtained while fresh and diced to approximately 5 mm pieces before digesting at 37 °C with 2% collagenase I in F12-K nutrient mix (Kaighn’s) medium, overnight. After the completion of digestion, the tissue was centrifuged at 250×g for 5 min and the supernatant was discarded. The pellet was washed with phosphate buffered saline and was mixed and cultured in MammoCult media supplemented with 0.2% heparin and 0.5% hydrocortisone. After 24 h incubation at 37 °C the treatments were mixed with fresh MammoCult media and added to the microstructures.
After 24 h incubation with the treatments, the microstructure pellet of the first 6 donors’ samples were prepared separately (not pooled) and washed with HBSS. Trizol was added to each pellet and the protocol of Direct-Zol RNA prep kit was used to extract RNA. The protocol included a step of DNAse I treatment for removing DNA contamination of the RNA preparations. RNA was eluted in nuclease free water and the concentration was measured using Nano Drop 2000 spectrophotometry (Thermo Fisher). The Integrated DNA Technologies (IDT) protocol, pre-made aromatase (CYP19A1) gene primer, and the pre-made housekeeping RPLP0 gene primer was used to perform qPCR using QuantStudio 12 K Flex Real Time PCR system.

[5] = system: uterus; set-up: method as in PMID 18619951, PMID 34848279; settings: cited from earlier work
[6] = system: uterus; test: In vivo uterotrophic study in immature female Sprague-Dawley rats; set-up: species or system rat; settings: 3 days
Procedure: Animals were sacrificed on day 4 and their uterine weights were measured.
We used the OECD guidelines and animal model for testing uterotrophic or estrogenic activity of compounds[49]. […] The animals were treated for 3 days every 24 h. Animal weight and food intake were evaluated daily. Animals were sacrificed by CO2 asphyxiation. Uterus was collected, trimmed of fat and connective tissue, and weighted.

[7] = system: MCF-7 cells; test: MCF-7 cell proliferation by IncuCyte live cell imaging; assay type: cell-based, human
Procedure: Cell proliferation was monitored using live cell imaging by IncuCyte. Data represents the mean of at least two independent observations ± SEM.
MCF-7 cells were seeded at density of 2.5 × 10^3 cells/well in RPMI media supplemented with 10% FBS. Cells were placed in IncuCyte for live cell imaging every 6 h, and were monitored. […] Treatments were repeated every 48 h until day 6 and cells were monitored until day 12. Data was analyzed using Zoom software to quantify the images and were plotted as mean ± SD of at least two independent measurements.

[8] = ref J Agric Food Chem. 2020, 68: 10651–10663

SMILES: CC(C)=CCc1c(O)cc2c(c1O)C(=O)C[C@@H](c1ccc(O)cc1)O2 [6-PN, 6-prenylnaringenin]
IC50 [1]: 7400 ± 300 nM

SMILES: CC(C)=CCc1c(O)cc(O)c2c(=O)cc(-c3ccc(O)cc3)oc12 [8-PA, 8-prenylapigenin]
IC50 [1]: 590 ± 80 nM | IC50 [2, 8]: 100 ± 50 nM | IC50 [3, 8]: 30 ± 10 nM

SMILES: CC(C)=CCc1c(O)cc(O)c2c1O[C@H](c1ccc(O)cc1)CC2=O [8-PN, 8-prenylnaringenin]
IC50 [1]: 50 ± 4 nM | Suppression of CYP19A1 expression ([4]; 10 µM, 5 subjects' tissues): 40% | IC50 [2, 8]: […] | IC50 [3, 8]: […] | Uterine growth [5]: enhance uterine growth

SMILES: C[C@]12CC[C@@H]3c4ccc(OC(=O)c5ccccc5)cc4CC[C@H]3[C@@H]1CC[C@@H]2O [Estradiol benzoate, 17β-estradiol benzoate, reference compound]
Uterine weight vs vehicle ([6]; 1.6 µg/kg.day s.c.): significantly enhanced uterine weight (nearly doubled)

IC50 [1]: 3200 ± 100 nM
SMILES: C=CC(C)(C)c1cc(/C=C/C(=O)c2ccc(O)cc2)c(OC)cc1O [LicA, licochalcone A]
Suppression of baseline CYP19A1 expression [4]: ~40%

IC50 [1]: 4000 ± 300 nM
SMILES: O=C(/C=C/c1ccc(O)cc1)c1ccc(O)cc1O [LigC, isoliquiritigenin]
IC50 ([2]; ref PLoS One, 2013, 8: e67947): 16000 ± 1000 nM | IC50 ([3]; ref PLoS One, 2013, 8: e67947): 7800 ± 100 nM

IC50 [1]: 430 ± 20 nM
SMILES: O=C1C[C@@H](c2ccc(O)cc2)Oc2cc(O)ccc21 [LigF, liquiritigenin]
Suppression of baseline CYP19A1 expression [4]: 25% | Uterine growth vs vehicle ([6]; 50 mg/kg.day s.c.): did not enhance uterine growth, significantly | E2-induced uterine growth ([6]; 150 mg/kg.day s.c. co-administered with estradiol benzoate 1.6 µg/kg.day): suppressed E2-induced uterine growth, significantly | Uterine growth vs vehicle ([6]; 150 mg/kg.day s.c.): did not enhance uterine growth, significantly | Cell proliferation after treatment halted ([7]; 20 µM, treatment halted after third dose (six days)): reached full confluency on day 10 | Cell proliferation after treatment halted ([7]; 40 µM, last dose on day 6): maintained a significantly reduced proliferation rate until the end of the study (day 11) | Cytotoxicity ([7]; MCF-7 cells exposed to LigF): did not detect cytotoxicity | Cell proliferation ([7]; repeated doses of 20 µM every 48 h): profound suppression of proliferation | Cell proliferation ([7]; repeated doses of 40 µM every 48 h): profound suppression of proliferation | Cell proliferation after a single dose ([7]; single dose): clear reduction in cell proliferation for up to 48 h | IC50 ([2]; ref PLoS One, 2013, 8: e67947): > 200000 nM

IC50 [1]: 4300 ± 600 nM
SMILES: COc1cc(O)c(CC=C(C)C)c(O)c1C(=O)/C=C/c1ccc(O)cc1 [XH, xanthohumol]
